The values that follow come from patent publication US20160199326A1, “USE OF TRIFLUOROACETIC ACID AS KERATOLYTIC AGENT TO TREAT HYPERKERATOTIC SKIN LESIONS” (POLICHEM S.A., priority 2013, published 2016).

Structures are written as SMILES.

One series has as its system angiogenesis. The following applies: cited from earlier work.
Series [1] has as its system stratum corneum of hairless rats. Kind of series: Exfoliating activity in vivo after topical application on the back of hairless rats, histological evaluation. The conditions noted are these: ten hairless rats, 10% CaTFA gel topical two times a day for ten days. Also noted: species or system rat. How it is done: The formulations used had the following composition: Medicated formulation (D) CaTFA 10.00 g, Xanthan gum 2.00 g, Water q.s. to 100.00 g. Vehicle (V): Xanthan gum 2.00 g, Water q.s. to 100.00 g.
The experiments were carried out on 4 weeks old hairless male rats (HsdHanTM:RNU—Foxnl rnu, Harlan Italy srl, Correzzana, Italy). The back of ten rats was divided in two parts (section area: 2.5×3.0 cm) for topical application of the test formulations. A volume of 200 μl of the medicated formulation or the vehicle was applied two times a day for ten days. Fifteen hours after the last administration, the animals were sacrificed by cervical dislocation and the portion of skin submitted to the treatment was excised, carefully rinsed to remove the remaining formulation and submitted to histological evaluation. A sample of untreated skin of each animal was used as control (C). The histological evaluation was done as follows: the skin samples were fixed in 10% buffered formalin solution, dehydrated and embedded in JB-4 plastic resin. Coronal sections were cut by a microtome (Reichert-Jung) and mounted onto gelatin coated slides. Sections were stained with methylene blue/toluidine blue for microscopic examination to verify the absence of stratum corneum and the condition of the other parts of the skin. The specimens were assessed under Leitz Diaplan microscope.

In the next series the test system is tumor growth. The following applies: animal experimental models; cited from earlier work.
A further series relates to solid tumor cells. The conditions noted are these: in vitro; cited from earlier work.
The conditions of series [2]: known; cited from earlier work.

As to `O=C([O-])C(F)(F)F.O=C([O-])C(F)(F)F.[Ca+2]` [Calcium trifluoroacetate], in the series with angiogenesis, the antiangiogenetic activity result was “relevant antiangiogenetic activity”. Moreover, the “effective as keratolytic agent, share of treated animals” value in series [1] was found to be 70%. Also, the tumor growth entry with tumor growth is recorded as “inhibit tumor growth”. The cytotoxic activity result with solid tumor cells is “in vitro cytotoxic activity on solid tumor cells”.

For `O=C([O-])C(F)(F)F.[Na+]` [NaTFA, Sodium Trifluoroacetate], the toxicity entry in series [2] is reported as “devoid of significant toxicity”.
